# According to ChEMBL document CHEMBL3526037, “Evaluation of the relationship between sex, polymorphisms in CYP2C8 and CYP2C9, and pharmacokinetics of angiotensin receptor blockers” (Drug Metab Dispos, 2013):
# Columns and labels:
# Type in all cases: ADME, organism-based
# [1] = Half life in men plasma at 25 to 32 mg by LC/MS/MS analysis; details: male, human
# [2] = Clearance in human plasma expressing CYP2C9*2 allele carrier polymorphism at 25 to 32 mg by LC/MS/MS analysis
# [3] = AUC in human plasma expressing CYP2C9*3 allele carrier polymorphism at 25 to 32 mg by LC/MS/MS analysis
# [4] = Cmax in human plasma expressing CYP2C8*1/*1 polymorphism at 25 to 32 mg by LC/MS/MS analysis
# [5] = Clearance in human plasma expressing CYP2C9*3 allele carrier polymorphism at 25 to 32 mg by LC/MS/MS analysis
# [6] = Tmax in human plasma expressing CYP2C9*3 allele carrier polymorphism at 25 to 32 mg by LC/MS/MS analysis
# [7] = Tmax in human plasma expressing CYP2C8*2 allele carrier polymorphism at 25 to 32 mg by LC/MS/MS analysis
# [8] = Clearance in human plasma expressing CYP2C9*1/*1 polymorphism at 25 to 32 mg by LC/MS/MS analysis
# [9] = AUC in human plasma expressing CYP2C8*4 allele carrier polymorphism at 25 to 32 mg by LC/MS/MS analysis
# [10] = Half life in human plasma expressing CYP2C9*2 allele carrier polymorphism at 25 to 32 mg by LC/MS/MS analysis
# [11] = AUC in human plasma expressing CYP2C8*3 allele carrier polymorphism at 25 to 32 mg by LC/MS/MS analysis
# [12] = AUC in women plasma at 25 to 32 mg by LC/MS/MS analysis; details: female, human
# [13] = AUC in human plasma expressing CYP2C9*2 allele carrier polymorphism at 25 to 32 mg by LC/MS/MS analysis
# [14] = Cmax in human plasma expressing CYP2C8*4 allele carrier polymorphism at 25 to 32 mg by LC/MS/MS analysis
# [15] = Cmax in men plasma at 25 to 32 mg by LC/MS/MS analysis; details: male, human
# [16] = Clearance in human plasma expressing CYP2C8*1/*1 polymorphism at 25 to 32 mg by LC/MS/MS analysis
# [17] = Cmax in human plasma expressing CYP2C9*3 allele carrier polymorphism at 25 to 32 mg by LC/MS/MS analysis
# [18] = Half life in women plasma at 25 to 32 mg by LC/MS/MS analysis; details: female, human
# [19] = Tmax in human plasma expressing CYP2C8*1/*1 polymorphism at 25 to 32 mg by LC/MS/MS analysis
# [20] = Clearance in men plasma at 25 to 32 mg by LC/MS/MS analysis; details: male, human
# [21] = Half life in human plasma expressing CYP2C8*1/*1 polymorphism at 25 to 32 mg by LC/MS/MS analysis
# [22] = Half life in human plasma expressing CYP2C9*3 allele carrier polymorphism at 25 to 32 mg by LC/MS/MS analysis
# [23] = Half life in human plasma expressing CYP2C9*1/*1 polymorphism at 25 to 32 mg by LC/MS/MS analysis
# [24] = Cmax in human plasma expressing CYP2C9*1/*1 polymorphism at 25 to 32 mg by LC/MS/MS analysis
# [25] = Clearance in human plasma expressing CYP2C8*2 allele carrier polymorphism at 25 to 32 mg by LC/MS/MS analysis
# [26] = Tmax in men plasma at 25 to 32 mg by LC/MS/MS analysis; details: male, human
# [27] = Cmax in women plasma at 25 to 32 mg by LC/MS/MS analysis; details: female, human
# [28] = AUC in men plasma at 25 to 32 mg by LC/MS/MS analysis; details: male, human
# [29] = Cmax in human plasma expressing CYP2C8*2 allele carrier polymorphism at 25 to 32 mg by LC/MS/MS analysis
# [30] = Half life in human plasma expressing CYP2C8*3 allele carrier polymorphism at 25 to 32 mg by LC/MS/MS analysis
# [31] = Clearance in human plasma expressing CYP2C8*3 allele carrier polymorphism at 25 to 32 mg by LC/MS/MS analysis
# [32] = Half life in human plasma expressing CYP2C8*4 allele carrier polymorphism at 25 to 32 mg by LC/MS/MS analysis
# [33] = AUC in human plasma expressing CYP2C9*1/*1 polymorphism at 25 to 32 mg by LC/MS/MS analysis
# [34] = Clearance in human plasma expressing CYP2C8*4 allele carrier polymorphism at 25 to 32 mg by LC/MS/MS analysis
# [35] = Tmax in human plasma expressing CYP2C9*2 allele carrier polymorphism at 25 to 32 mg by LC/MS/MS analysis
# [36] = Cmax in human plasma expressing CYP2C9*2 allele carrier polymorphism at 25 to 32 mg by LC/MS/MS analysis
# [37] = Tmax in human plasma expressing CYP2C9*1/*1 polymorphism at 25 to 32 mg by LC/MS/MS analysis
# [38] = Tmax in human plasma expressing CYP2C8*4 allele carrier polymorphism at 25 to 32 mg by LC/MS/MS analysis
# [39] = Tmax in human plasma expressing CYP2C8*3 allele carrier polymorphism at 25 to 32 mg by LC/MS/MS analysis
# [40] = Cmax in human plasma expressing CYP2C8*3 allele carrier polymorphism at 25 to 32 mg by LC/MS/MS analysis
# [41] = AUC in human plasma expressing CYP2C8*2 allele carrier polymorphism at 25 to 32 mg by LC/MS/MS analysis
# [42] = AUC in human plasma expressing CYP2C8*1/*1 polymorphism at 25 to 32 mg by LC/MS/MS analysis
# [43] = Half life in human plasma expressing CYP2C8*2 allele carrier polymorphism at 25 to 32 mg by LC/MS/MS analysis
# [44] = Clearance in women plasma at 25 to 32 mg by LC/MS/MS analysis; details: female, human
# [45] = Tmax in women plasma at 25 to 32 mg by LC/MS/MS analysis; details: female, human
# [46] = AUC in human plasma expressing CYP2C9*1/*1 polymorphism treated with losartan at 50 mg by LC/MS/MS analysis
# [47] = Cmax in women plasma treated with losartan at 50 mg by LC/MS/MS analysis; design: dose 50 mg; details: female, human
# [48] = AUC in human plasma expressing CYP2C8*3 allele carrier polymorphism treated with losartan at 50 mg by LC/MS/MS analysis
# [49] = Half life in men plasma treated with losartan at 50 mg by LC/MS/MS analysis; details: male, human
# [50] = Tmax in human plasma expressing CYP2C9*1/*1 polymorphism treated with losartan at 50 mg by LC/MS/MS analysis
# [51] = Tmax in human plasma expressing CYP2C9*2 allele carrier polymorphism treated with losartan at 50 mg by LC/MS/MS analysis
# [52] = AUC in human plasma expressing CYP2C9*3 allele carrier polymorphism treated with losartan at 50 mg by LC/MS/MS analysis
# [53] = Half life in human plasma expressing CYP2C9*3 allele carrier polymorphism treated with losartan at 50 mg by LC/MS/MS analysis
# [54] = Tmax in human plasma expressing CYP2C8*3 allele carrier polymorphism treated with losartan at 50 mg by LC/MS/MS analysis
# [55] = Half life in human plasma expressing CYP2C9*1/*1 polymorphism treated with losartan at 50 mg by LC/MS/MS analysis
# [56] = Half life in women plasma treated with losartan at 50 mg by LC/MS/MS analysis; details: female, human
# [57] = Tmax in human plasma expressing CYP2C9*3 allele carrier polymorphism treated with losartan at 50 mg by LC/MS/MS analysis
# [58] = Tmax in human plasma expressing CYP2C8*1/*1 polymorphism treated with losartan at 50 mg by LC/MS/MS analysis
# [59] = Cmax in human plasma expressing CYP2C9*3 allele carrier polymorphism treated with losartan at 50 mg by LC/MS/MS analysis; design: dose 50 mg
# [60] = Cmax in human plasma expressing CYP2C8*3 allele carrier polymorphism treated with losartan at 50 mg by LC/MS/MS analysis; design: dose 50 mg
# [61] = AUC in human plasma expressing CYP2C8*4 allele carrier polymorphism treated with losartan at 50 mg by LC/MS/MS analysis
# [62] = Half life in human plasma expressing CYP2C8*4 allele carrier polymorphism treated with losartan at 50 mg by LC/MS/MS analysis
# [63] = Cmax in human plasma expressing CYP2C9*1/*1 polymorphism treated with losartan at 50 mg by LC/MS/MS analysis; design: dose 50 mg
# [64] = Half life in human plasma expressing CYP2C8*1/*1 polymorphism treated with losartan at 50 mg by LC/MS/MS analysis
# [65] = Cmax in human plasma expressing CYP2C8*1/*1 polymorphism treated with losartan at 50 mg by LC/MS/MS analysis; design: dose 50 mg
# [66] = AUC in women plasma treated with losartan at 50 mg by LC/MS/MS analysis; details: female, human
# [67] = Tmax in men plasma treated with losartan at 50 mg by LC/MS/MS analysis; details: male, human
# [68] = Cmax in human plasma expressing CYP2C9*2 allele carrier polymorphism treated with losartan at 50 mg by LC/MS/MS analysis; design: dose 50 mg
# [69] = AUC in human plasma expressing CYP2C8*1/*1 polymorphism treated with losartan at 50 mg by LC/MS/MS analysis
# [70] = Cmax in human plasma expressing CYP2C8*4 allele carrier polymorphism treated with losartan at 50 mg by LC/MS/MS analysis; design: dose 50 mg
# [71] = Tmax in women plasma treated with losartan at 50 mg by LC/MS/MS analysis; details: female, human
# [72] = Cmax in men plasma treated with losartan at 50 mg by LC/MS/MS analysis; design: dose 50 mg; details: male, human
# [73] = AUC in human plasma expressing CYP2C9*2 allele carrier polymorphism treated with losartan at 50 mg by LC/MS/MS analysis
# [74] = Tmax in human plasma expressing CYP2C8*4 allele carrier polymorphism treated with losartan at 50 mg by LC/MS/MS analysis
# [75] = Half life in human plasma expressing CYP2C9*2 allele carrier polymorphism treated with losartan at 50 mg by LC/MS/MS analysis
# [76] = AUC in men plasma treated with losartan at 50 mg by LC/MS/MS analysis; details: male, human
# [77] = Half life in human plasma expressing CYP2C8*3 allele carrier polymorphism treated with losartan at 50 mg by LC/MS/MS analysis
smiles,measurement,setting,value
CCOc1nc2cccc(C(=O)O)c2n1Cc1ccc(-c2ccccc2-c2nnn[nH]2)cc1,half-life,[1],11.3 h
same,clearance,[2],2.5 mL/min/kg
same,AUC,[3],3630 ng·h/mL
same,Cmax,[4],242 ng/mL
same,clearance,[5],2.5 mL/min/kg
same,Tmax,[6],5 h
same,Tmax,[7],3.4 h
same,clearance,[8],2.33 mL/min/kg
same,AUC,[9],4130 ng·h/mL
same,half-life,[10],12.8 h
same,AUC,[11],3450 ng·h/mL
same,AUC,[12],3810 ng·h/mL
same,AUC,[13],3450 ng·h/mL
same,Cmax,[14],287 ng/mL
same,Cmax,[15],216 ng/mL
same,clearance,[16],2.5 mL/min/kg
same,Cmax,[17],230 ng/mL
same,half-life,[18],12.1 h
same,Tmax,[19],5.2 h
same,clearance,[20],2.33 mL/min/kg
same,half-life,[21],11.7 h
same,half-life,[22],12.1 h
same,half-life,[23],10.9 h
same,Cmax,[24],258 ng/mL
same,clearance,[25],2.5 mL/min/kg
same,Tmax,[26],5.1 h
same,Cmax,[27],260 ng/mL
same,AUC,[28],3260 ng·h/mL
same,Cmax,[29],289 ng/mL
same,half-life,[30],12 h
same,clearance,[31],2.67 mL/min/kg
same,half-life,[32],11.2 h
same,AUC,[33],3590 ng·h/mL
same,clearance,[34],2.17 mL/min/kg
same,Tmax,[35],4.8 h
same,Cmax,[36],217 ng/mL
same,Tmax,[37],5.1 h
same,Tmax,[38],4.1 h
same,Tmax,[39],5.1 h
same,Cmax,[40],214 ng/mL
same,AUC,[41],3580 ng·h/mL
same,AUC,[42],3510 ng·h/mL
same,half-life,[43],10.7 h
same,clearance,[44],2.5 mL/min/kg
same,Tmax,[45],4.9 h
CCCCc1nc(Cl)c(C(=O)O)n1Cc1ccc(-c2ccccc2-c2nn[nH]n2)cc1 [CARBOXYLIC ACID METABOLITE],AUC,[46],2140 ng·h/mL
same,Cmax,[47],301 ng/mL
same,AUC,[48],1500 ng·h/mL
same,half-life,[49],4.9 h
same,Tmax,[50],3.7 h
same,Tmax,[51],3.5 h
same,AUC,[52],2860 ng·h/mL
same,half-life,[53],5.7 h
same,Tmax,[54],3.7 h
same,half-life,[55],4.6 h
same,half-life,[56],4.8 h
same,Tmax,[57],4.3 h
same,Tmax,[58],3.9 h
same,Cmax,[59],154 ng/mL
same,Cmax,[60],196 ng/mL
same,AUC,[61],2270 ng·h/mL
same,half-life,[62],4.6 h
same,Cmax,[63],292 ng/mL
same,half-life,[64],4.8 h
same,Cmax,[65],249 ng/mL
same,AUC,[66],2580 ng·h/mL
same,Tmax,[67],3.7 h
same,Cmax,[68],224 ng/mL
same,AUC,[69],2330 ng·h/mL
same,Cmax,[70],382 ng/mL
same,Tmax,[71],3.7 h
same,Cmax,[72],209 ng/mL
same,AUC,[73],1770 ng·h/mL
same,Tmax,[74],2.8 h
same,half-life,[75],4.9 h
same,AUC,[76],1810 ng·h/mL
same,half-life,[77],5.1 h
